Measurements as given in patent publication US10471177B2, “Surface modified biological materials” (Orthobond Corporation, priority 2011, dated 2019).

Assay: Stability of gentamicin in 0.25M HCl under autoclave conditions
Type: physicochemical
Details: earlier studies

## gentamicin
  loss of gentamicin detection: No significant loss
